System: terminal sensory nerve fibers of rat vulva
Assay: reduction of nerve fiber density in rat vulva, PGP 9.5 immunostaining
Format: in vivo
Conditions: 33 μL, 1% (w/v) in DGME applied for 20 minutes, Day 7, statistical significance not established
Experimental: Sixty female retired breeder Sprague-Dawley rats were divided into 6 groups. On day 0, rats were anesthetized with isoflurane anesthetic gas and then LMX5® anesthetic cream was applied to the entire vulvar area of each rat at least 30 minutes. The test formulations were applied using a micropipette to dispense 33 μL of each formulation. The formulations applied were diethylene glycol monoethyl ether (DGME) alone; 0.01% capsaicin (w/v) in DGME; 0.1% capsaicin (w/v) in DGME; 1% resiniferatoxin (w/v) in DGME; 3% capsaicin (w/v) in 90% (v/v) DGME and 10% (v/v) DMSO, a 10% capsaicin (w/v) in DGME. The formulations were left on for 20 minutes with the exception of 10% capsaicin (w/v) in DGME which was left on for 5 minutes. The remaining formulation was removed using a cleansing gel (89.08% PEG 300, 1.0% Carbopol 1382™, 0.02% butylated hydroxyanisole, 0.01% disodium edentate, pH 6.5). […] The tissues were evaluated by a board certified veterinary pathologist for (1) any and all lesions, with particular attention to inflammation and any microvascular changes, and (2) the presence, absence and any abnormalities in the architecture of the terminal nerve sensory nerve fibers. For each specimen, nerve fiber functionality was determined by counting the number of nerve fibers observed in at least four microscopical fields (each circular microscopical field has a radius of 90 μm) and then averaged. […]

C=C(C)[C@]12C[C@@H](C)[C@@]34O[C@](Cc5ccccc5)(O[C@@H]1[C@@H]3C=C(COC(=O)Cc1ccc(O)c(OC)c1)C[C@]1(O)C(=O)C(C)=C[C@@H]41)O2 [resiniferatoxin]
decrease in nerve fiber density: 28%
